Structures are written as SMILES.

This assay deals with T1, hTAAR5 (Homo sapiens, UniProt O14804).
T1 construct: gene TAAR5; full length; N-terminal HA tag (YPYDVPDYA) and first 21 residues of bovine rhodopsin (Rho-tag) kept; vector pcDps; transient in HEK293 cells
T1 sequence (O14804 1-337): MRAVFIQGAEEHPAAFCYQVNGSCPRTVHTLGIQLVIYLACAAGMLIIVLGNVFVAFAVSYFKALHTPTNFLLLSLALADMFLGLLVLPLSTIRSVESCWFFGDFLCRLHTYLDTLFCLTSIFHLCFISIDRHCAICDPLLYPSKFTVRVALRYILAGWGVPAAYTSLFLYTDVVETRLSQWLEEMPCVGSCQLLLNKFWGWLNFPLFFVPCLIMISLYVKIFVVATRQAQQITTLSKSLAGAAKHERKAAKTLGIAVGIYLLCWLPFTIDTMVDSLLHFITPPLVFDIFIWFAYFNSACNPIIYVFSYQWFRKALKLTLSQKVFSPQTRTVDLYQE
The assay can be described thus: NFAT-RE luciferase reporter (IP3-luc), HEK293. The format is cell-based. Conditions: inverse agonist; reduction of basal Gq/11 (IP3) signaling; 6 h, 37 °C; 1 nM to 100 μM. A general note: Reporter assays use an easily measured gene product as a stand-in for the process of interest.

`NCCc1ccc(Oc2ccc(O)cc2)c(I)c1` [3-T1AM]: the midpoint of the response, the EC50, lay at 4.4 ± 0.9 µM.

For the origin of these results see article PMC4382497, “Inverse Agonistic Action of 3-Iodothyronamine at the Human Trace Amine-Associated Receptor 5” (PLoS ONE, 2015).
